Experimental data reported in patent US9956204B2, “Composition for exterminating scuticociliates in fish including mebendazole” (NATIONAL INSTITUTE OF FISHERIES SCIENCE, priority 2016, dated 2018).

Tests used:
[1] = test system: scuticociliates; test: Scuticociliates extermination effect of candidate substances in seawater medium; format: cell-based
Description: For this, scuticociliates were cultured in CHSE-214 cell line (using MEM medium), and then scuticociliates were collected and centrifuged with sterilized seawater or artificial seawater (20‰) to replace them with a seawater medium. Each of 100 μl (1×10^5) was dispensed into each well of 96 wells, followed by further culture for 30 minutes. The candidate substances diluted in seawater to have a volume of 100 μl per each concentration were mixed with scuticociliates to have the final volume of 200 μl and cultured for 4 hour.

[2] = test system: scuticociliates; test: Scuticociliates extermination effect of candidate substances in MEM medium; format: cell-based
Description: CHSE-214 cell line into which scuticociliates were inoculated was cultured in advance. The CHSE-214 cell line was cultured in an incubator using an MEM medium at 22° C. Scuticociliates inoculated into the cell line proliferated for 3 days by which the number reaches to be capable of analyzing in vitro anti-scuticociliates effect. Scuticociliates that feed on the cell line and sufficiently grow were mixed with the candidate substance and the activity of scuticociliates was measured.
In order to analyze the antiparasitic activity of the above 19 types of candidate substances of scuticociliates extermination drugs, scuticociliates were cultured for 3 days, and 100 μl (1×10^5) was dispensed into each well of 96 wells. The candidate substances were diluted by each concentration and the final volume was dispensed into 100 μl. Thereafter, the two were mixed and finally made into 200 μl.

[3] = seawater medium, 4 hour, Dosage 500 ppm
[4] = seawater medium, 4 hour, Dosage 1000 ppm
[5] = seawater medium, 4 hour, Dosage 1500 ppm
[6] = seawater medium, 4 hour, Dosage 2000 ppm
[7] = seawater medium, 4 hour, Dosage 2500 ppm
[8] = seawater medium, 4 hour, Dosage 3000 ppm
[9] = seawater medium, 4 hour, Dosage 3500 ppm
[10] = seawater medium, 4 hour, Dosage 4000 ppm
[11] = seawater medium, 4 hour, Dosage 10 ppm
[12] = seawater medium, 4 hour, Dosage 50 ppm
[13] = seawater medium, 4 hour, Dosage 100 ppm
[14] = seawater medium, 4 hour, Dosage 200 ppm
[15] = seawater medium, 4 hour, Dosage 600 ppm
[16] = seawater medium, 4 hour, Dosage 700 ppm
[17] = seawater medium, 4 hour, Dosage 800 ppm

Row | Compound | Survival or Death of scuticociliates (activity and shape, microscope) [1, 3] | Survival or Death of scuticociliates (activity and shape, microscope) [1, 4] | Survival or Death of scuticociliates (activity and shape, microscope) [1, 5] | Survival or Death of scuticociliates (activity and shape, microscope) [1, 6] | Survival or Death of scuticociliates (activity and shape, microscope) [1, 7] | Survival or Death of scuticociliates (activity and shape, microscope) [1, 8] | Survival or Death of scuticociliates (activity and shape, microscope) [1, 9] | Survival or Death of scuticociliates (activity and shape, microscope) [1, 10] | Survival or Death of scuticociliates (activity and shape, microscope) ([2]; MEM medium, Dosage 500 ppm) | Survival or Death of scuticociliates (activity and shape, microscope) ([2]; MEM medium, Dosage 1000 ppm) | Survival or Death of scuticociliates (activity and shape, microscope) ([2]; MEM medium, Dosage 1500 ppm) | Survival or Death of scuticociliates (activity and shape, microscope) ([2]; MEM medium, Dosage 2000 ppm) | Survival or Death of scuticociliates (activity and shape, microscope) ([2]; MEM medium, Dosage 2500 ppm) | Survival or Death of scuticociliates (activity and shape, microscope) ([2]; MEM medium, Dosage 3000 ppm) | Survival or Death of scuticociliates (activity and shape, microscope) ([2]; MEM medium, Dosage 3500 ppm) | Survival or Death of scuticociliates (activity and shape, microscope) ([2]; MEM medium, Dosage 4000 ppm) | Survival or Death of scuticociliates (activity and shape, microscope) ([2]; MEM medium, Dosage 600 ppm) | Survival or Death of scuticociliates (activity and shape, microscope) ([2]; MEM medium, Dosage 700 ppm) | Survival or Death of scuticociliates (activity and shape, microscope) ([2]; MEM medium, Dosage 800 ppm) | Survival or Death of scuticociliates (activity and shape, microscope) ([2]; MEM medium, Dosage 900 ppm) | further results
1 | c1ccc(C2CN3CCSC3=N2)cc1 (stereo not drawn) [Tetramisole] | Survival | Survival | Survival | Survival | Survival | Survival | Survival | Survival | Survival | Survival | Survival | Survival | Survival | Survival | Survival | Survival | – | – | – | – | –
2 | O=[N+]([O-])NC1=NCCN1Cc1ccc(Cl)nc1 [Imidacloprid] | Survival | Δ | Death | Death | Death | – | – | – | Survival | Δ | – | Death | – | – | – | – | Survival | Survival | Survival | Δ | Survival or Death of scuticociliates (activity and shape, microscope) ([1]; seawater medium, 4 hour, Dosage 1200 ppm): Δ; Survival or Death of scuticociliates (activity and shape, microscope) ([1]; seawater medium, 4 hour, Dosage 1400 ppm): Death; Survival or Death of scuticociliates (activity and shape, microscope) ([2]; MEM medium, Dosage 5000 ppm): Death
3 | COC(=O)Nc1nc2ccc(Sc3ccccc3)cc2[nH]1 [Fenbendazole] | Survival | Death | – | – | – | – | – | – | Survival | Death | – | – | – | – | – | – | Survival | Survival | Δ | Δ | Survival or Death of scuticociliates (activity and shape, microscope) [1, 11]: Survival; Survival or Death of scuticociliates (activity and shape, microscope) [1, 12]: Survival; Survival or Death of scuticociliates (activity and shape, microscope) [1, 13]: Survival; Survival or Death of scuticociliates (activity and shape, microscope) [1, 14]: Survival; Survival or Death of scuticociliates (activity and shape, microscope) ([1]; seawater medium, 4 hour, Dosage 300 ppm): Survival; Survival or Death of scuticociliates (activity and shape, microscope) ([1]; seawater medium, 4 hour, Dosage 400 ppm): Survival; Survival or Death of scuticociliates (activity and shape, microscope) [1, 15]: Survival; Survival or Death of scuticociliates (activity and shape, microscope) [1, 16]: Survival; Survival or Death of scuticociliates (activity and shape, microscope) [1, 17]: Δ; Survival or Death of scuticociliates (activity and shape, microscope) ([1]; seawater medium, 4 hour, Dosage 900 ppm): Δ; Survival or Death of scuticociliates (activity and shape, microscope) ([2]; MEM medium, Dosage 10 ppm): Survival; Survival or Death of scuticociliates (activity and shape, microscope) ([2]; MEM medium, Dosage 50 ppm): Survival; Survival or Death of scuticociliates (activity and shape, microscope) ([2]; MEM medium, Dosage 100 ppm): Survival; Survival or Death of scuticociliates (activity and shape, microscope) ([2]; MEM medium, Dosage 200 ppm): Survival; Survival or Death of scuticociliates (activity and shape, microscope) ([2]; MEM medium, Dosage 300 ppm): Survival; Survival or Death of scuticociliates (activity and shape, microscope) ([2]; MEM medium, Dosage 400 ppm): Survival
4 | CN1CCCN=C1/C=C/c1cccs1 [Pyrantel] | Survival | Survival | Survival | Survival | Survival | Survival | Survival | Survival | Survival | Survival | Survival | Survival | Survival | Survival | Survival | Survival | – | – | – | – | –
5 | C1CNCCN1 [Piperazine] | Survival | Survival | Survival | Survival | Survival | Survival | Survival | Survival | Survival | Survival | Survival | Survival | Survival | Survival | Survival | Survival | – | – | – | – | –
6 | COP(=O)(OC)C(O)C(Cl)(Cl)Cl (stereo not drawn) [Trichlorfon] | Survival | – | – | – | – | – | – | – | Survival | Death | – | – | – | – | – | – | Δ | Death | Death | Death | Survival or Death of scuticociliates (activity and shape, microscope) [1, 11]: Survival; Survival or Death of scuticociliates (activity and shape, microscope) [1, 12]: Survival; Survival or Death of scuticociliates (activity and shape, microscope) [1, 13]: Survival; Survival or Death of scuticociliates (activity and shape, microscope) [1, 14]: Survival; Survival or Death of scuticociliates (activity and shape, microscope) [1, 15]: Death; Survival or Death of scuticociliates (activity and shape, microscope) [1, 16]: Death; Survival or Death of scuticociliates (activity and shape, microscope) ([2]; MEM medium, Dosage 200 ppm): Survival
7 | O=C(OCc1ccccc1)c1ccccc1 [Benzyl benzonate] | Δ | – | – | – | – | – | – | – | Survival | Δ | – | – | – | – | – | – | Survival | – | Δ | – | Survival or Death of scuticociliates (activity and shape, microscope) [1, 12]: Survival; Survival or Death of scuticociliates (activity and shape, microscope) [1, 13]: Survival; Survival or Death of scuticociliates (activity and shape, microscope) [1, 15]: Death; Survival or Death of scuticociliates (activity and shape, microscope) [1, 16]: Death; Survival or Death of scuticociliates (activity and shape, microscope) [1, 17]: Death; Survival or Death of scuticociliates (activity and shape, microscope) ([2]; MEM medium, Dosage 10 ppm): Survival; Survival or Death of scuticociliates (activity and shape, microscope) ([2]; MEM medium, Dosage 50 ppm): Survival; Survival or Death of scuticociliates (activity and shape, microscope) ([2]; MEM medium, Dosage 100 ppm): Survival; Survival or Death of scuticociliates (activity and shape, microscope) ([2]; MEM medium, Dosage 200 ppm): Survival
8 | CO[C@H]1C[C@H](O[C@@H]2/C(C)=C/C[C@@H]3C[C@@H](C[C@]4(CC[C@H](C)[C@@H](C5CCCCC5)O4)O3)OC(=O)[C@@H]3C=C(C)/C(=N/O)[C@H]4OC/C(=C\C=C\[C@@H]2C)[C@]43O)O[C@@H](C)[C@@H]1O [Selamectin] | – | – | – | – | – | – | – | – | – | – | – | – | – | – | – | – | – | – | – | – | Survival or Death of scuticociliates (activity and shape, microscope) [1]: Survival and Δ and Death; Survival or Death of scuticociliates (activity and shape, microscope) [2]: Survival and Δ and Death
